Source: patent publication US10173999B2, “Cyclic amine derivative and pharmaceutical use thereof” (Toray Industries, Inc., priority 2015, dated 2019)
“Also recorded” adds a separate entry of the source. Where a name gives a salt, the structure may show the parent alone. One block for each compound: values may come before it.

Assays:
[1] = tested on: fibromyalgia syndrome model rats; test: Rat fibromyalgia syndrome model (acidic saline), allodynia by von Frey filament; format: in vivo; conditions: for allodynia (50% response threshold) vs acidic saline+distilled water group: Day 7, pregabalin 10 mg/kg
Procedure: To prepare a fibromyalgia syndrome model rat (Sluka et al., Journal of Pharmacology and Experimental Therapeutics, vol. 302, p. 1146-1150, 2002; Nagakura et al., Pain, vol. 146, p. 26-33, 2009; Sluka et al., Pain, vol. 146, p. 3-4, 2009), which is generally employed widely in basic research for fibromyalgia syndrome, acidic saline (100 μL) adjusted to pH 4.0 was intramuscularly injected to the gastrocnemius muscle of the right hind paw of Crl: CD(SD) rat (6 to 7 weeks old, male; from CHARLES RIVER LABORATORIES JAPAN, INC.) under continuous inhalation anesthesia with isoflurane, twice (once in each day of Day 1 and Day 6, wherein Day 1 was the date on which the acidic saline was initially administrated). The rats thus prepared were raised in a breeding room controlled at an indoor temperature of 21 to 25° C. and an indoor humidity of 40 to 70% under the conditions of voluntary intake of food and water. In the same manner, rats to which physiological saline in place of acidic saline was intramuscularly injected were raised. The rats thus raised and not afflicted with fibromyalgia syndrome (“physiological saline+distilled water” group in FIG. 13) were also used in the experiment.
Seven days after the initial administration of acidic saline, allodynia in each rat was measured. […] Note that, measurement of allodynia was performed by use of a von Frey filament (from North Coast Medical) in accordance with the method described in a known literature (Chaplan et al., Journal of Neuroscience Methods, vol. 53, p. 55-63, 1994).
The fibromyalgia syndrome model rats thus obtained are divided into groups such that the 50% response threshold (mean value of the right hind paw and the left hind paw) of the individual groups became equal, and a test compound was administered to the fibromyalgia syndrome model rats on Day 7 after the initial administration of acidic saline.
The compound of Example 11 (0.1 to 10 mg/kg) was dissolved in distilled water and then orally administered to fibromyalgia syndrome model rats (“acidic saline+the compound of Example 11” in FIG. 13). Pregabalin serving as a positive control (10 mg/kg; from KEMPROTEC) was dissolved in distilled water and then orally administered (“acidic saline+pregabalin” in FIG. 13). As a control, distilled water was orally administered to fibromyalgia syndrome model rats (“acidic saline+distilled water” in FIG. 13). Furthermore, distilled water was orally administered to rats not afflicted with fibromyalgia syndrome (“physiological saline+distilled water” in FIG. 13). One hour and three hours after the oral administration, allodynia in individual rats was measured to evaluate an analgesic action. At this time, the 50% response threshold value in the measurement of allodynia before oral administration of the test compound on Day 7 after initial administration of acidic saline was defined as the pre-value.
To prepare a fibromyalgia syndrome model rat (Sluka et al., Journal of Pharmacology and Experimental Therapeutics, vol. 302, p. 1146-50, 2002; Nagakura et al., Pain, vol. 146, p. 26-33, 2009; Sluka et al., Pain, vol. 146, p. 3-4, 2009), which is generally employed widely in basic research for fibromyalgia syndrome, acidic saline (100 μL) adjusted to pH 4.0 was intramuscularly injected to the gastrocnemius muscle of the right hind paw of Slc: (SD) rats (6 to 7 weeks old, male; from Japan SLC, Inc.) under continuous inhalation anesthesia with isoflurane, twice (once in each of Day 1 and Day 6, wherein Day 1 was the initial administration date of the acidic saline). The rats thus prepared were raised in a breeding room controlled at an indoor temperature of 21 to 25° C. and an indoor humidity of 40 to 70% under the conditions of voluntary intake of food and water. In the same manner, rats to which physiological saline was intramuscularly injected in place of acidic saline were raised. […]

[2] = tested on: Canine aortic smooth muscle cells; test: Inducibility of cytoplasmic vacuolation in canine aortic smooth muscle cells; format: cell-based; set-up: key: Present: The term “present” in the tables means that cytoplasmic vacuolation was observed; Absent: the term “absent” means that cytoplasmic vacuolation was not observed; conditions: Concentration: 1.0 mmol/L, Treatment time: 24 hours
Procedure: As a test compound, the compound of Example 3, 9, 11, 12 or compounds of Comparative Examples 2 to 6 were used. Canine aortic smooth muscle cells (Canine Aortic Smooth Muscle Cells, supply source: Toyobo Co., Ltd.) or human aortic smooth muscle cells of (T/G HA-VSMG, supply source: ATCC) were treated with a test compound (1.0 or 1.2 mmol/L in concentration) for 24 hours or 2 weeks. The cells were stained with HE, immunohistochemically for LAMP-2 or toluidine blue, and thereafter the presence or absence of cytoplasmic vacuolation was determined by using an optical microscope.

[3] = tested on: mouse partial sciatic nerve ligation model (neuropathic pain); test: Mouse partial sciatic nerve ligation model (Seltzer model), von Frey test; format: in vivo; conditions: Comparative Example 7: oral, 7 days after ligation, 1-3 h after dosing; 0.01-1 mg/kg (Comp Ex 1), 10 mg/kg (Comp Ex 3-6, pregabalin); vs ligation+distilled water; t-test corrected by Dunnett

SMILES: CN(C)C1CCN(C(=O)C[C@H](O)c2nccn2C)CC1 [Example 11, (S)-1-(4-(dimethylamino)piperidin-1-yl)-3-hydroxy-3-(1-methyl-1H-imidazol-2-yl)propan-1-one]
allodynia (50% response threshold) vs acidic saline+distilled water group ([1]; Example 15: oral, Example 11 0.1 to 10 mg/kg, 1 and 3 h after dosing): statistically significantly improved; also recorded: statistically significant analgesic action
time the analgesic action lasted after oral administration ([1]; oral administration): 3 h
Inducibility of cytoplasmic vacuolation [2]: Absent

Inducibility of cytoplasmic vacuolation [2]: Present
SMILES: CC(C)n1ccnc1CCC(=O)N1CCC(N(C)C)CC1 [Comparative Example 6, 1-(4-(dimethylamino)piperidin-1-yl)-3-(1-isopropyl-1H-imidazol-2-yl)propan-1-one hydrochloride]
analgesic action in von Frey test (total score) [3]: statistically significant analgesic action

SMILES: CN(C)C1CCN(C(=O)CCc2nccn2C)CC1 [Comparative Example 1, 1-(4-(dimethylamino)piperidin-1-yl)-3-(1-methyl-1H-imidazol-2-yl)propan-1-one hydrochloride]
allodynia (50% response threshold) vs acidic saline+distilled water group ([1]; Comparative Example 8: oral, Comparative Example 1 0.1 to 1 mg/kg, 1, 2 and 3 h after dosing, hydrochloride): statistically significantly improved; also recorded: statistically significant analgesic action
persistence of analgesic action ([1]; oral administration): tended to significantly decrease 3 hours after oral administration
analgesic action in von Frey test (total score) [3]: statistically significant analgesic action
